Measurements: patent US6737041B1, “Non-ozone depleting vapocoolants” (University of Cincinnati, priority 1993, dated 2004)

What was measured:
[1] = test system: skin (site on the subject's forearm); assay: Study 1: minimum skin temperature after spraying coolant for 5 seconds from 12 inches; assay type: in vivo, human; conditions: spray time 5 seconds; for Minimum temperature for site A, MEAN ± STANDARD DEVIATION / Minimum temperature for site A: site A (forearm); for Minimum temperature for site A, MEAN ± STANDARD DEVIATION / Minimum temperature for site B, MEAN ± STANDARD DEVIATION: mean of 5 subjects, in °C (unit assumed); for Minimum temperature for site B, MEAN ± STANDARD DEVIATION / Minimum temperature for site B: site B (forearm, different from A)
Experimental: Tables 1 and 5 describe the experimental conditions in accordance with the procedural steps described above. The only difference between Table 1 and Table 5 and between Study 1 and Study 2 is that in Study 1 the spray time was five seconds, whereas in Study 2 the spray time was 3 seconds. Comparison is made between various coolants including ethylchloride at room temperature, ethylchloride at 11° C., Fluorimethane® at room temperature, Fuorimethane® at 11° C. and mixtures of HFC 152a and HFC 134a.
(§1) Tables 2 and 6 describe the subjects chosen including their normal skin temperature, the sex, race, age, weight and height of the subjects.

[2] = test system: skin (site on the subject's forearm); assay: Study 2: minimum skin temperature after spraying coolant for 3 seconds from 12 inches; assay type: in vivo, human; conditions: spray time 3 seconds; for Minimum temperature for site A, MEAN ± SD / Minimum temperature for site A: site A (forearm); for Minimum temperature for site A, MEAN ± SD / Minimum temperature for site B, MEAN ± SD: mean of 15 subjects, in °C (unit assumed); for Minimum temperature for site B, MEAN ± SD / Minimum temperature for site B: site B (forearm, different from A)
Source text: Tables 1 and 5 describe the experimental conditions in accordance with the procedural steps described above. The only difference between Table 1 and Table 5 and between Study 1 and Study 2 is that in Study 1 the spray time was five seconds, whereas in Study 2 the spray time was 3 seconds.
as §1

[3] = subject 1, in °C (unit assumed)
[4] = subject 2, in °C (unit assumed)
[5] = subject 3, in °C (unit assumed)
[6] = subject 4, in °C (unit assumed)
[7] = subject 5, in °C (unit assumed)
[8] = subject code 1, in °C (unit assumed)
[9] = subject code 2, in °C (unit assumed)
[10] = subject code 3, in °C (unit assumed)
[11] = subject code 4, in °C (unit assumed)
[12] = subject code 5, in °C (unit assumed)
[13] = subject code 6, in °C (unit assumed)
[14] = subject code 7, in °C (unit assumed)
[15] = subject code 8, in °C (unit assumed)
[16] = subject code 9, in °C (unit assumed)
[17] = subject code 10, in °C (unit assumed)
[18] = subject code 11, in °C (unit assumed)
[19] = subject code 12, in °C (unit assumed)
[20] = subject code 13, in °C (unit assumed)
[21] = subject code 14, in °C (unit assumed)
[22] = subject code 15, in °C (unit assumed)

## CCCl [EC, Ethyl chloride]
[1]
  Minimum temperature for site A, MEAN ± STANDARD DEVIATION: −14.93 ± 2.45
  Minimum temperature for site B, MEAN ± STANDARD DEVIATION: −16.40 ± 0.77
[1]; [3]
  Minimum temperature for site A: −13.22
  Minimum temperature for site B: −16.87
[1]; [4]
  Minimum temperature for site A: −16.87
  Minimum temperature for site B: −15.78
[1]; [5]
  Minimum temperature for site A: −17.56
  Minimum temperature for site B: −15.73
[1]; [6]
  Minimum temperature for site A: −11.72
  Minimum temperature for site B: −16.12
[1]; [7]
  Minimum temperature for site A: −15.26
  Minimum temperature for site B: −17.50
[2]
  Minimum temperature for site A, MEAN ± SD: −15.70 ± 1.56
  Minimum temperature for site B, MEAN ± SD: −15.92 ± 2.01
[2]; [8]
  Minimum temperature for site A: −16.93
  Minimum temperature for site B: −17.99
[2]; [9]
  Minimum temperature for site A: −14.64
  Minimum temperature for site B: −17.03
[2]; [10]
  Minimum temperature for site A: −13.78
  Minimum temperature for site B: −13.60
[2]; [11]
  Minimum temperature for site A: −14.86
  Minimum temperature for site B: −16.89
[2]; [12]
  Minimum temperature for site A: −15.34
  Minimum temperature for site B: −15.33
[2]; [13]
  Minimum temperature for site A: −14.75
  Minimum temperature for site B: −12.73
[2]; [14]
  Minimum temperature for site A: 16.70
  Minimum temperature for site B: −15.93
[2]; [15]
  Minimum temperature for site A: −18.76
  Minimum temperature for site B: −18.79
[2]; [16]
  Minimum temperature for site A: −15.46
  Minimum temperature for site B: −12.08
[2]; [17]
  Minimum temperature for site A: −16.53
  Minimum temperature for site B: −14.03
[2]; [18]
  Minimum temperature for site A: −14.68
  Minimum temperature for site B: −18.32
[2]; [19]
  Minimum temperature for site A: −13.59
  Minimum temperature for site B: −16.52
[2]; [20]
  Minimum temperature for site A: −14.52
  Minimum temperature for site B: 16.48
[2]; [21]
  Minimum temperature for site A: −16.62
  Minimum temperature for site B: −16.02
[2]; [22]
  Minimum temperature for site A: −18.45
  Minimum temperature for site B: −17.12

## CCCl [ECC, Ethyl chloride]
[1]
  Minimum temperature for site A, MEAN ± STANDARD DEVIATION: −15.59 ± 2.50
  Minimum temperature for site B, MEAN ± STANDARD DEVIATION: −18.41 ± 1.92
[1]; [3]
  Minimum temperature for site A: −15.80
  Minimum temperature for site B: −19.22
[1]; [4]
  Minimum temperature for site A: −11.32
  Minimum temperature for site B: −15.56
[1]; [5]
  Minimum temperature for site A: −17.81
  Minimum temperature for site B: −18.71
[1]; [6]
  Minimum temperature for site A: −16.19
  Minimum temperature for site B: −17.80
[1]; [7]
  Minimum temperature for site A: −16.84
  Minimum temperature for site B: −20.75
[2]
  Minimum temperature for site A, MEAN ± SD: −16.12 ± 2.13
  Minimum temperature for site B, MEAN ± SD: −15.54 ± 3.33
[2]; [8]
  Minimum temperature for site A: −17.89
  Minimum temperature for site B: −12.79
[2]; [9]
  Minimum temperature for site A: −17.54
  Minimum temperature for site B: −17.73
[2]; [10]
  Minimum temperature for site A: −14.82
  Minimum temperature for site B: −11.70
[2]; [11]
  Minimum temperature for site A: −13.46
  Minimum temperature for site B: −16.21
[2]; [12]
  Minimum temperature for site A: −17.04
  Minimum temperature for site B: −15.84
[2]; [13]
  Minimum temperature for site A: −17.18
  Minimum temperature for site B: −15.32
[2]; [14]
  Minimum temperature for site A: −13.22
  Minimum temperature for site B: −10.04
[2]; [15]
  Minimum temperature for site A: −13.10
  Minimum temperature for site B: −20.86
[2]; [16]
  Minimum temperature for site A: −18.11
  Minimum temperature for site B: −16.69
[2]; [17]
  Minimum temperature for site A: −17.63
  Minimum temperature for site B: −18.07
[2]; [18]
  Minimum temperature for site A: −15.56
  Minimum temperature for site B: −18.65
[2]; [19]
  Minimum temperature for site A: −17.00
  Minimum temperature for site B: −10.58
[2]; [20]
  Minimum temperature for site A: −13.13
  Minimum temperature for site B: −12.08
[2]; [21]
  Minimum temperature for site A: −16.26
  Minimum temperature for site B: −17.86
[2]; [22]
  Minimum temperature for site A: −19.80
  Minimum temperature for site B: −18.69
